Calls of active or inactive are those of the source. The rule behind the calls is not given here.
Tested on: rodent carcinogenicity bioassays, tumor incidence
Test: CCRIS carcinogenicity studies
Settings: Dose: 0
How it was run: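 Archive of carcinogenicity, mutagenicity, tumor promotion and tumor inhibition results drawn from journals, NCI reports and other sources, expert-reviewed; covers 1985-2011 and is no longer updated.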

Measured: carcinogen call

O=[N+]([O-])c1cc2c3ccccc3ccc2c2ccccc12
active: Species: MOUSE, Strain/Sex: B6C3F1/MALE, Route: INTRAPERITONEAL, 400 NMOL IN 35 µL DMSO ON DAYS 1 (1/7 TOTAL DOSE), 8 (2/7 TOTAL DOSE), AND 15 (4/7 TOTAL DOSE) AFTER BIRTH (STUDY DUR, Tumor Site: Type of Lesion: LIVER: ADENOMA OR CARCINOMA, LUNG: TUMOR active; positive | Species: MOUSE, Strain/Sex: BLU:HA/FEMALE, Route: INTRAPERITONEAL, 38.5, 189 UG (TOTAL DOSE) GIVEN TO NEWBORN MICE IN 3 DOSES OF 1/7, 2/7 AND 4/7 OF THE TOTAL ON DAYS 1, 8 AND 15 RESPE, 38.5, 189 UG (TOTAL DOSE) GIVEN TO NEWBORN MICE IN 3 DOSES OF 1/7, 2/7 AND 4/7 OF THE TOTAL ON DAYS 1, 8 AND 15 RESPE, Tumor Site: Type of Lesion: LUNG: TUMORS active; positive | Species: MOUSE, Strain/Sex: BLU:HA/MALE, Route: INTRAPERITONEAL, 38.5, 189 UG (TOTAL DOSE) GIVEN TO NEWBORN MICE IN 3 DOSES OF 1/7, 2/7 AND 4/7 OF THE TOTAL ON DAYS 1, 8 AND 15 RESPE, 38.5, 189 UG (TOTAL DOSE) GIVEN TO NEWBORN MICE IN 3 DOSES OF 1/7, 2/7 AND 4/7 OF THE TOTAL ON DAYS 1, 8 AND 15 RESPE, Tumor Site: Type of Lesion: LUNG: TUMORS active; positive | Species: MOUSE, Strain/Sex: ICR/FEMALE, Route: INTRAPERITONEAL, 7.5, 15, 30 µL OF A 26.7 NMOL/UL DMSO SOLUTION ON 1,8, AND 15 D OF AGE RESPECTIVELY (TOTAL DOSE: 0; 1.4 UMOL) (STUDY, 7.5, 15, 30 µL OF A 26.7 NMOL/UL DMSO SOLUTION ON 1,8, AND 15 D OF AGE RESPECTIVELY (TOTAL DOSE: 0; 1.4 UMOL) (STUDY, Tumor Site: Type of Lesion: LUNG: ADENOMA active; positive | Species: MOUSE, Strain/Sex: ICR/FEMALE, Route: INTRAPERITONEAL, 7.7 UG TOTAL DOSE (1.1 UG/5 µL, 2.2 UG/10 µL, 4.4 UG/20 µL DMSO ON DAYS 1, 8 AND 15) ADMINISTERED TO NEWBORN ANIMALS, Tumor Site: Type of Lesion: LUNG: ADENOMA, ADENOCARCINOMA active; positive | Species: MOUSE, Strain/Sex: ICR/FEMALE, Route: INTRAPERITONEAL, 100 NMOL (TOTAL DOSE) ADMINISTERED IN 3 SUBDOSES OF 1/7, 2/7, AND 4/7 ON DAYS 1, 8 AND 15 OF LIFE, RESPECTIVELY (STUD, Tumor Site: Type of Lesion: LUNG: TUMORS active; positive | Species: MOUSE, Strain/Sex: ICR/MALE, Route: INTRAPERITONEAL, 7.5, 15, 30 µL OF A 26.7 NMOL/UL DMSO SOLUTION ON 1,8, AND 15 D OF AGE RESPECTIVELY (TOTAL DOSE: 0; 1.4 UMOL) (STUDY, 7.5, 15, 30 µL OF A 26.7 NMOL/UL DMSO SOLUTION ON 1,8, AND 15 D OF AGE RESPECTIVELY (TOTAL DOSE: 0; 1.4 UMOL) (STUDY, Tumor Site: Type of Lesion: LUNG: ADENOMA active; positive | Species: MOUSE, Strain/Sex: ICR/MALE, Route: INTRAPERITONEAL, 7.7 UG TOTAL DOSE (1.1 UG/5 µL, 2.2 UG/10 µL, 4.4 UG/20 µL DMSO ON DAYS 1, 8 AND 15) ADMINISTERED TO NEWBORN ANIMALS, Tumor Site: Type of Lesion: LUNG: ADENOMA, ADENOCARCINOMA active; positive | Species: MOUSE, Strain/Sex: ICR/MALE, Route: INTRAPERITONEAL, 100 NMOL (TOTAL DOSE) ADMINISTERED IN 3 SUBDOSES OF 1/7, 2/7, AND 4/7 ON DAYS 1, 8 AND 15 OF LIFE, RESPECTIVELY (STUD, Tumor Site: Type of Lesion: LUNG: TUMORS, LIVER: TUMORS active; positive | Species: MOUSE, Strain/Sex: SWISS/FEMALE, Route: INTRAPERITONEAL, 100, 700 NMOL (TOTAL DOSE) 1/7, 2/7 AND 4/7 ADMINISTERED ON DAYS 1, 8 AND 15 OF LIFE RESPECTIVELY (STUDY DURATION: 32, 100, 700 NMOL (TOTAL DOSE) 1/7, 2/7 AND 4/7 ADMINISTERED ON DAYS 1, 8 AND 15 OF LIFE RESPECTIVELY (STUDY DURATION: 32, Tumor Site: Type of Lesion: LUNG: TUMOR active; positive | Species: MOUSE, Strain/Sex: SWISS/FEMALE, Route: INTRAPERITONEAL, 100 NMOL (TOTAL DOSE) ADMINISTERED 1/7, 2/7 AND 4/7 ON DAY 1, 8 AND 15 RESPECTIVELY (STUDY DURATION: 32 WK), Tumor Site: Type of Lesion: LUNG: TUMOR active; positive | Species: MOUSE, Strain/Sex: SWISS/FEMALE, Route: INTRAPERITONEAL, 100 NMOL ON DAY 1 OF LIFE (STUDY DURATION: 32 WK), Tumor Site: Type of Lesion: LUNG: TUMOR, LIVER: TUMOR active; positive | Species: MOUSE, Strain/Sex: SWISS/MALE, Route: INTRAPERITONEAL, 100, 700 NMOL (TOTAL DOSE) 1/7, 2/7 AND 4/7 ADMINISTERED ON DAYS 1, 8 AND 15 OF LIFE RESPECTIVELY (STUDY DURATION: 32, 100, 700 NMOL (TOTAL DOSE) 1/7, 2/7 AND 4/7 ADMINISTERED ON DAYS 1, 8 AND 15 OF LIFE RESPECTIVELY (STUDY DURATION: 32, Tumor Site: Type of Lesion: LUNG: TUMOR, LIVER: TUMOR active; positive | Species: MOUSE, Strain/Sex: SWISS/MALE, Route: INTRAPERITONEAL, 100 NMOL (TOTAL DOSE) ADMINISTERED 1/7, 2/7 AND 4/7 ON DAY 1, 8 AND 15 RESPECTIVELY (STUDY DURATION: 32 WK), Tumor Site: Type of Lesion: LIVER: TUMOR, LUNG: TUMOR active; positive | Species: MOUSE, Strain/Sex: SWISS/MALE, Route: INTRAPERITONEAL, 100 NMOL ON DAY 1 OF LIFE (STUDY DURATION: 32 WK), Tumor Site: Type of Lesion: LUNG: TUMOR, LIVER: TUMOR active; positive | Species: RAT, Strain/Sex: CD-1/FEMALE, Route: INTRAPERITONEAL, 15, 30, 60, 150, 300 µL OF A 26.7 NMOL/UL SOLUTION ON 1, 8, 15, 22, AND 29 D OF AGE RESPECTIVELY (TOTAL DOSE: 0, 14.8, 15, 30, 60, 150, 300 µL OF A 26.7 NMOL/UL SOLUTION ON 1, 8, 15, 22, AND 29 D OF AGE RESPECTIVELY (TOTAL DOSE: 0, 14.8, Tumor Site: Type of Lesion: COLON: ADENOCARCINOMA, ADENOMA/DYSPLASIA active; positive | Species: RAT, Strain/Sex: CD-1/MALE, Route: INTRAPERITONEAL, 15, 30, 60, 150, 300 µL OF A 26.7 NMOL/UL DMSO SOLUTION ON 1, 8, 15, 22 AND 29 D OF AGE RESPECTIVELY (TOTAL DOSE: 0;, 15, 30, 60, 150, 300 µL OF A 26.7 NMOL/UL DMSO SOLUTION ON 1, 8, 15, 22 AND 29 D OF AGE RESPECTIVELY (TOTAL DOSE: 0;, Tumor Site: Type of Lesion: COLON: ADENOCARCINOMA, ADENOMA active; positive | Species: RAT, Strain/Sex: STRAIN-CD/ FEMALE, Route: INJECTION, 2.04 UMOL IN 0.1 ML DMSO INJECTED BENEATH EACH OF THREE LEFT THORACIC NIPPLES THEN ON THE NEXT DAY BENEATH EACH THE T, Tumor Site: Type of Lesion: MAMMARY GLAND: TUMOR active; positive | Species: RAT, Strain/Sex: STRAIN-CD/FEMALE, Route: INJECTION, 2.04 UMOL IN 100 µL DMSO INJECTED INTO 3 THORACIC MAMMARY GLANDS ON DAY 1 AND INTO 3 INQUINAL MAMMARY GLANDS ON DAY 2, Tumor Site: Type of Lesion: MAMMARY GLAND: FIBROADENOMA, ADENOCARCINOMA, SPINDLE CELL SARCOMA active; positive

CN(CCC(=O)O)N=O
active: Species: MOUSE, Strain/Sex: STRAIN-A/FEMALE, Route: INTRAPERITONEAL, 200 UMOL MOUSE (TOTAL DOSE) ADMINISTERED IN 0.1 ML SALINE 3/WK (TOTAL 20 INJECTIONS) (STUDY DURATION: 37 WK), Tumor Site: Type of Lesion: LUNG: ADENOCARCINOMA, ADENOMA active; positive

Reference: PubChem BioAssay AID1259411 (Chemical Carcinogenesis Research Information System (CCRIS), 2018)
